Measurements from US10160771B2, “Hepatitis C virus inhibitors and uses thereof in preparation of drugs” (priority 2014, dated 2018).

Key:
[1] = tested on: HCV genotype 1b (HCV-1b) replicon cells; assay: HCV genotype 1b replicon luciferase assay (EC50); format: cell-based, hepatitis C virus genotype 1b (Con1 clone); settings: 3 days, luciferase (Bright-Glo)
Summary of the method: (§1)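 EC50 by nonlinear fitting of % inhibition from Bright-Glo luciferase signal after 3-day, 37° C. compound exposure (5-fold, 6 points from 100, 10 or 1 nM; 0.5% DMSO; duplicates). Cells: 1a replicon from H77 (K1691R/K2040R/S2204I) or 1b from Con1 (E1202G/T1280I/K1846T), 8000 per well.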

[2] = Cell Titer-fluor cell activity assay in HCV-1b replicon cells (CC50); format: cell-based
Summary of the method: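 CC50 derived by nonlinear fitting of inhibition % from Cell Titer-fluor signal (405/515 nm, 30 min). Cells: genotype 1b Con1 replicon carrying E1202G, T1280I, K1846T, seeded 8000/well with compound for 3 days, 37 °C, 0.5% DMSO; 6 points, 5-fold dilution, top 100, 10 or 1 nM, duplicates.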

[3] = tested on: HCV genotype 1a (HCV-1a) replicon cells; assay: HCV genotype 1a replicon luciferase assay (EC50); format: cell-based, hepatitis C virus genotype 1a (H77 clone); settings: Hepatitis C virus, 72 h, 3 days, luciferase (Bright-Glo)
Summary of the method: as §1

| SMILES | EC50 ([1]; Hepatitis C virus, 72 h) [nM] | CC50 at 3 days [2] [nM] | EC50 [3] [nM] | EC50 [1] [nM] |
| --- | --- | --- | --- | --- |
| COC(=O)NC(C(=O)N1CCC[C@H]1c1nc2ccc(-c3ccc(-c4[nH]c([C@@H]5CCCN5C(=O)[C@@H](NC(=O)OC)C(C)OC)c5c4CCC5)cc3)cc2[nH]1)[C@@H](C)OC (stereo partly drawn) [AG_092] | 0.001 to 0.1 | > 1 | 10 to 100 | – |
| COC(=O)N[C@H](C(=O)N1CCC[C@H]1c1ncc(-c2ccc(-c3ccc(-c4cnc([C@@H]5C6CCC(C6)[C@H]5C(=O)NCc5ccco5)[nH]4)cc3)cc2)[nH]1)C(C)C (stereo partly drawn) [AA_198_B] | 0.001 to 0.1 | > 1 | 10 to 100 | – |
| COC(=O)N[C@H](C(=O)N1CCC[C@H]1c1ccc(-c2ccc(-c3ccc(-c4cnc([C@@H]5CC6(CCCC6)CN5C(=O)[C@@H](NC(=O)OC)[C@@H](C)OC)[nH]4)cc3)cc2)[nH]1)[C@@H](C)OC [AG_110] | 0.001 to 0.1 | > 1 | 0.101 to 1 | – |
| COC(=O)N[C@H](C(=O)N1CCC[C@H]1c1ncc(-c2ccc(-c3ccc(-c4cnc([C@@H]5C6CCC(C6)[C@H]5C(=O)NCc5cccnc5C(C)C)[nH]4)cc3)cc2)[nH]1)C(C)C (stereo partly drawn) [AA_215_B] | 0.001 to 0.1 | > 1 | 10 to 100 | – |
| COC(=O)N[C@H](C(=O)N1CCC[C@H]1c1ncc(-c2ccc(-c3ccc(-c4[nH]c([C@@H]5CCCN5C(=O)[C@@H](NC(=O)OC)C(C)C)c5c4CCCC5)cc3)cc2)[nH]1)C(C)C [AG_015_A] | 0.001 to 0.1 | > 1 | 10 to 100 | – |
| COC(=O)N[C@H](C(=O)N1CCC[C@H]1c1ccc(-c2ccc(-c3ccc(-c4cnc([C@@H]5CC6(CC6)CN5C(=O)[C@@H](NC(=O)OC)[C@@H](C)OC)[nH]4)cc3)cc2)[nH]1)[C@@H](C)OC [AG_115] | 0.001 to 0.1 | > 1 | 0.101 to 1 | – |
| COC(=O)N[C@H](C(=O)N1CCC[C@H]1c1ncc(-c2ccc(-c3ccc(-c4cnc([C@@H]5C6CCC(C6)[C@H]5C(=O)NCc5cccnc5)[nH]4)cc3)cc2C)[nH]1)C(C)C (stereo partly drawn) [AA_211_B] | 0.001 to 0.1 | > 1 | 1 to 10 | – |
| COC(=O)N[C@H](C(=O)N1CCC[C@H]1c1ncc(-c2ccc(-c3ccc(-c4cnc([C@H]5C6CCC(C6)[C@@H]5C(=O)NCc5cccnc5C(F)(F)F)[nH]4)cc3)cc2)[nH]1)C(C)C (stereo partly drawn) [AA_216_A] | 0.001 to 0.1 | > 1 | 10 to 100 | – |
| COC(=O)N[C@H](C(=O)N1CCC[C@H]1c1ncc(-c2ccc(-c3ccc(-c4cnc([C@@H]5[C@H]6CC[C@H](C6)[C@H]5C(=O)NC5(c6ccccc6)CC5)[nH]4)cc3)cc2)[nH]1)C(C)C [AA_273_ENDOA2] | 0.001 to 0.1 | > 1 | 1 to 10 | – |
| COC(=O)N[C@H](C(=O)N1CCC[C@@H]1c1ccc(-c2ccc(-c3ccc(-c4cnc([C@@H]5CCCN5C(=O)[C@@H](NC(=O)OC)[C@@H](C)OC)[nH]4)cc3)cc2)[nH]1)C(C)C [AG_061_B] | 0.001 to 0.1 | > 10 | 0.101 to 1 | – |
| COC(=O)N[C@H](C(=O)N1CCCC1c1ncc(-c2ccc(-c3ccc(-c4[nH]c([C@@H]5CCCN5C(=O)[C@@H](NC(=O)OC)C(C)C)c5c4CCC5)cc3)cc2)[nH]1)C(C)C (stereo partly drawn) [AG_014_A] | 0.001 to 0.1 | > 10 | 1 to 10 | – |
| COC(=O)N[C@H](C(=O)N1CCC[C@H]1c1ncc(-c2ccc(-c3ccc(-c4cnc(C5C6CCC(C6)[C@H]5C(=O)NCc5cccnc5)[nH]4)cc3)cc2)[nH]1)[C@@H](C)OC (stereo partly drawn) [AA_179_A] | 0.001 to 0.1 | > 1 | 1 to 10 | – |
| COC(=O)N[C@H](C(=O)N1CCC[C@H]1c1ncc(-c2ccc(-c3ccc(-c4cnc(C5C6CCC(C6)[C@H]5C(=O)N[C@@H](C)c5ccccc5)[nH]4)cc3)cc2)[nH]1)[C@@H](C)OC (stereo partly drawn) [AA_262_B] | 0.001 to 0.1 | > 1 | 0.101 to 1 | – |
| COC(=O)NC(C(=O)N1CCC[C@H]1c1[nH]c(-c2ccc(-c3ccc(-c4cnc([C@@H]5CCCN5C(=O)[C@@H](NC(=O)OC)[C@@H](C)OC)[nH]4)cc3)cc2)c2c1CCC2)[C@@H](C)OC (stereo partly drawn) [AG_068_A] | 0.001 to 0.1 | > 1 | 1 to 10 | – |
| COC(=O)N[C@H](C(=O)N1CCC[C@H]1c1ncc(-c2ccc(-c3ccc(-c4cnc(C5C6CCC(C6)[C@H]5C(=O)N(NC(=O)OC)C(C)C)[nH]4)cc3)cc2)[nH]1)C(C)C (stereo partly drawn) [AA_121_B] | – | > 10 | 1 to 10 | 0.001 to 0.1 |
| COC(=O)N[C@H](C(=O)N1CCC[C@H]1c1[nH]c(-c2ccc(-c3ccc(-c4cnc([C@@H]5CCCN5C(=O)[C@@H](NC(=O)OC)[C@@H](C)OC)[nH]4)cc3)cc2)c2c1CCCC2)C(C)C [AG_067] | 0.001 to 0.1 | > 1 | 10 to 100 | – |
| COC(=O)N[C@H](C(=O)N1CCC[C@H]1c1ncc(-c2ccc(-c3ccc(-c4cnc(C5C6CCC(C6)[C@@H]5C(=O)NCCc5ccncc5)[nH]4)cc3)cc2)[nH]1)[C@@H](C)OC (stereo partly drawn) [AA_266_A] | 0.101 to 1 | > 1 | 1 to 10 | – |

| SMILES | EC50 ([1]; Hepatitis C virus, 72 h) [nM] | CC50 at 3 days [2] [nM] | EC50 [3] [nM] | EC50 [1] [nM] |
| --- | --- | --- | --- | --- |
| COC(=O)N[C@H](C(=O)N1CCC[C@H]1c1ncc(-c2ccc(-c3ccc(-c4cnc(C5C6CCC(C6)[C@H]5C(=O)NCc5ccccn5)[nH]4)cc3)cc2)[nH]1)[C@@H](C)OC (stereo partly drawn) [AA_221_A] | 0.001 to 0.1 | > 1 | 1 to 10 | – |
| COC(=O)N[C@H](C(=O)N1CCC[C@H]1c1ncc(-c2ccc(-c3ccc(-c4cnc([C@H]5C6CCC(C6)[C@@H]5C(=O)NCc5cccnc5)[nH]4)cc3)cc2C)[nH]1)C(C)C (stereo partly drawn) [AA_211_A] | 0.001 to 0.1 | > 1 | 1 to 10 | – |
| COC(=O)N[C@H](C(=O)N1CCC[C@H]1c1ncc(-c2ccc(-c3ccc(-c4cnc([C@@H]5C6CCC(C6)[C@H]5C(=O)NCc5ccc(N)cc5)[nH]4)cc3)cc2)[nH]1)C(C)C (stereo partly drawn) [AA_210_B] | 0.001 to 0.1 | > 1 | 10 to 100 | – |
| COC(=O)N[C@H](C(=O)N1CCCC1c1ncc(-c2ccc(-c3ccc(-c4cnc([C@@H]5C6CCC(C6)C5C(=O)NCc5cccnc5)[nH]4)cc3)c(F)c2)[nH]1)[C@@H](C)OC (stereo partly drawn) [AA_280_A] | 0.001 to 0.1 | > 1 | 1 to 10 | – |
| COC(=O)N[C@H](C(=O)N1CCC[C@H]1c1ncc(-c2ccc(-c3ccc(-c4cnc(C5C6CCC(C6)[C@@H]5C(=O)NCc5ccncc5)[nH]4)cc3)cc2)[nH]1)[C@@H](C)OC (stereo partly drawn) [AA_248_B] | 0.101 to 1 | > 1 | 10 to 100 | – |
| COC(=O)N[C@H](C(=O)N1CCC[C@H]1c1ncc(-c2ccc(-c3ccc(-c4cnc(C5C6CCC(C6)[C@H]5C(=O)N(NC(=O)OC)C(C)C)[nH]4)cc3)c(OC)c2)[nH]1)C(C)C (stereo partly drawn) [AA_190_B] | 0.101 to 1 | > 1 | 10 to 100 | – |
| COC(=O)N[C@H](C(=O)N1CCC[C@H]1c1ncc(-c2ccc(-c3ccc(-c4cnc(C5C6CCC(C6)[C@@H]5C(=O)NCc5cccnc5)[nH]4)cc3)cc2)[nH]1)C(C)C (stereo partly drawn) [AA_162_B] | 0.001 to 0.1 | > 1 | 1 to 10 | – |
| COC(=O)N[C@H](C(=O)N1CCC[C@H]1c1ncc(-c2ccc(-c3ccc(-c4cnc([C@H]5C6CCC(C6)[C@@H]5C(=O)NCc5ccc(N)cc5)[nH]4)cc3)cc2)[nH]1)C(C)C (stereo partly drawn) [AA_210_A] | 0.001 to 0.1 | > 1 | 10 to 100 | – |
| COC(=O)N[C@H](C(=O)N1CCC[C@H]1c1ncc(-c2ccc(-c3ccc(-c4cnc(C5C6CCC(C6)[C@@H]5C(=O)NCc5ccc(OC)nc5)[nH]4)cc3)cc2)[nH]1)[C@@H](C)OC (stereo partly drawn) [AA_223_B] | 0.101 to 1 | > 1 | 10 to 100 | – |
| COC(=O)N[C@H](C(=O)N1CCC[C@H]1c1ncc(-c2ccc(-c3ccc(-c4cnc(C5C6CCC(C6)[C@H]5C(=O)NCc5cccnc5SC)[nH]4)cc3)cc2)[nH]1)[C@@H](C)OC (stereo partly drawn) [AA_260_B] | 0.001 to 0.1 | > 1 | 10 to 100 | – |
| COC(=O)N[C@H](C(=O)N1CCC[C@H]1c1ncc(-c2ccc(-c3ccc(-c4cnc([C@@H]5CCCC[C@H]5C(=O)NCc5cccnc5)[nH]4)cc3)cc2)[nH]1)C(C)C [AA_150_B] | 0.001 to 0.1 | > 10 | 0.101 to 1 | – |
| COC(=O)N[C@H](C(=O)N1CCC[C@H]1c1ncc(-c2ccc(-c3ccc(-c4cnc([C@H]5CCCC[C@@H]5C(=O)NCc5cccnc5)[nH]4)cc3)cc2)[nH]1)C(C)C [AA_150_A] | 0.101 to 1 | > 10 | 10 to 100 | – |
| COC(=O)N[C@H](C(=O)N1CCC[C@H]1c1ncc(-c2ccc(-c3ccc(-c4cnc([C@H]5C6CCC(C6)[C@@H]5C(=O)NCC5CNc6ccccc6C5)[nH]4)cc3)cc2)[nH]1)C(C)C (stereo partly drawn) [AA_218] | 0.101 to 1 | > 1 | 10 to 100 | – |
| COC(=O)N[C@H](C(=O)N1CCC[C@H]1c1ncc(-c2ccc(-c3ccc(-c4cnc(C5C6CCC(C6)[C@H]5C(=O)NCc5cccnc5C(C)C)[nH]4)cc3)cc2)[nH]1)[C@@H](C)OC (stereo partly drawn) [AA_245_A] | 0.001 to 0.1 | > 1 | 10 to 100 | – |
| COC(=O)N[C@H](C(=O)NC1(c2ncc(-c3ccc(-c4ccc(-c5ccc([C@@H]6CCCN6C(=O)[C@@H](NC(=O)OC)[C@@H](C)OC)[nH]5)cc4)cc3)[nH]2)CC1)[C@@H](C)OC [AG_106] | 0.001 to 0.1 | > 1 | 10 to 100 | – |
| COC(=O)N[C@H](C(=O)N1CCC[C@H]1c1ncc(-c2ccc(-c3ccc(-c4cnc(C5CC6(C[C@@H]5C(=O)N(NC(=O)OC)C(C)C)OCCO6)[nH]4)cc3)cc2)[nH]1)C(C)C (stereo partly drawn) [AA_160] | 0.001 to 0.1 | > 50 | 1 to 10 | – |
